In patent publication US8580811B2 (Ligand Pharmaceuticals Incorporated, priority 2005, dated 2013):

Molecular target: T1, human AR (Homo sapiens, UniProt P10275)
T1 construct: expressed in transfected cells; host or cells: COS-1 cells
T1 sequence (P10275 1-920): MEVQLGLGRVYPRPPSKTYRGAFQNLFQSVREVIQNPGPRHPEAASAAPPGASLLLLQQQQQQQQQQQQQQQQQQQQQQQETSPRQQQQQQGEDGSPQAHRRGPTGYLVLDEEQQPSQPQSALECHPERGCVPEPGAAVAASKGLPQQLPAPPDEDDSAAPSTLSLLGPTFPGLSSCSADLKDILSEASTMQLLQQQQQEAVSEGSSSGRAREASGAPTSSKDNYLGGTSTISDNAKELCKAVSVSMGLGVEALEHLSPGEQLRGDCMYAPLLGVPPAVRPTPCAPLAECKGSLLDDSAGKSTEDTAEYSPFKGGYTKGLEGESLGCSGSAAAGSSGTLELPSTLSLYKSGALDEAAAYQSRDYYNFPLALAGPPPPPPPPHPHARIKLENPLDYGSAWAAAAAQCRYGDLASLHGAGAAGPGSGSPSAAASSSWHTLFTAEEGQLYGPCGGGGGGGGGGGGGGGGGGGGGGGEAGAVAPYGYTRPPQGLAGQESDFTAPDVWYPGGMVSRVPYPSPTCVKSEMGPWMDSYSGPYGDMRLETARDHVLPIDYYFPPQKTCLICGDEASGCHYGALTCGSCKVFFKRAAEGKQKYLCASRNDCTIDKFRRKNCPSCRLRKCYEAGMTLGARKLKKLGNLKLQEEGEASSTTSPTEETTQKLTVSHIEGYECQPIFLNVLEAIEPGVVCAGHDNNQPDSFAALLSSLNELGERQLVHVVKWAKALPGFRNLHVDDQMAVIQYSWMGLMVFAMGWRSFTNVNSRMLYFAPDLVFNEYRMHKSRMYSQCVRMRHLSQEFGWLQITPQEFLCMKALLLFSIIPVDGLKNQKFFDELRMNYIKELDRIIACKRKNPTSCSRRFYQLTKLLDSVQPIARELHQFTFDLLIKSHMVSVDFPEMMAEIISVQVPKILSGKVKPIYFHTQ
Assay: IR Binding Assay: whole cell competitive binding of test compounds against 3H-DHT in COS-1 cells transfected with pRShAR
Method: For the whole cell binding assay, COS-1 cells in 96-well microtiter plates including DMEM-10% FBS were transfected as described above with the following plasmid DNA: pRShAR (2 ng/well), pRS-β-Gal (50 ng/well) and pGEM (48 ng/well). Six hours after transfection, media was removed, the cells were washed with PBS and fresh media was added. The next day, the media was changed to DMEM-serum free to remove any endogenous ligand that might be complexed with the receptor in the cells.
After 24 hours in serum-free media, either a saturation analysis to determine the Kd for tritiated dihydrotestosterone (^3H-DHT) on human AR or a competitive binding assay to evaluate the ability of test compounds to compete with ^3H-DHT for AR was performed. […] For the competitive binding assay, media including 1 nM ^3H-DHT and test compounds in concentrations ranging from 10^−10 to 10^−6 M were added to the cells. Three replicates were used for each sample. After three hours at 37° C., an aliquot of the total binding media at each concentration of ^3H-DHT was removed to estimate the amount of free ^3H-DHT. The remaining media was removed, the cells were washed three times with PBS to remove unbound ligand, and cells were lysed with a Triton X-100-based buffer. The lysates were assayed for amount of bound ^3H-DHT and β-Gal activity using a scintillation counter or spectrophotometer, respectively.
For the saturation analyses, the difference between the total binding and the nonspecific binding, normalized by the β-Gal rate, was defined as specific binding. The specific binding was evaluated by Scatchard analysis to determine the Kd for ^3H-DHT. See e.g., D. Rodbard, “Mathematics and statistics of ligand assays: an illustrated guide” In: J. Langon and J. J. Clapp, eds., Ligand Assay, Masson Publishing U.S.A., Inc., New York, pp. 45-99, (1981), the disclosure of which is herein incorporated by reference. For the competition studies, the data was plotted as the amount of ^3H-DHT (% of control in the absence of test compound) remaining over the range of the dose-response curve for a given compound. […] The Ki values were determined by application of the Cheng-Prusoff equation to the IC50 values, where:
[formula] After correcting for non-specific binding, IC50 values were determined. […] The IC50 value was determined graphically from a log-logit plot of the data. The Ki values were determined by application of the Cheng-Prusoff equation to the IC50 values, the labeled ligand concentration and the Kd of the labeled ligand. see e.g., Cheng, Y. C. and Prusoff, W. H. Biochem. Pharmacol. 22:3099 (1973).

| Compound | Ki [nM] |
| --- | --- |
| O=c1cc(Cl)c2c3c(ccc2[nH]1)N(CC(F)(F)F)C1CCCC31 (racemic) [Compound 126, (±)-9-Chloro-3-(2,2,2-trifluoro-ethyl)-1,2-trimethylene-1,2,3,6-tetrahydro-pyrrolo[3,2-f]-quinolin-7-one] | < 5 |
| CC1c2c(ccc3[nH]c(=O)cc(Cl)c23)N(CC(F)(F)F)C1C (racemic) [Compound 127, (±)-9-Chloro-1,2-dimethyl-3-(2,2,2-trifluoro-ethyl)-1,2,3,6-tetrahydro-pyrrolo[3,2-f]quinolin-7-one] | 5 to 10 |
| CCC1C(C)c2c(ccc3[nH]c(=O)cc(Cl)c23)N1CC(F)(F)F (racemic) [Compound 128, (±)-9-Chloro-2-ethyl-1-methyl-3-(2,2,2-trifluoro-ethyl)-1,2,3,6-tetrahydro-pyrrolo[3,2-f]quinolin-7-one] | > 10 |
| CCC1c2c(ccc3[nH]c(=O)cc(Cl)c23)N(CC(F)(F)F)C1C (racemic) [Compound 129, (±)-9-Chloro-1-ethyl-2-methyl-3-(2,2,2-trifluoro-ethyl)-1,2,3,6-tetrahydropyrrolo[3,2-f]-quinolin-7-one] | > 10 |
| CC1c2c(ccc3[nH]c(=O)cc(Cl)c23)N(CC(F)(F)F)C1c1ccccc1 (racemic) [Compound 130, (±)-9-Chloro-1-methyl-2-phenyl-3-(2,2,2-trifluoro-ethyl)-1,2,3,6-tetrahydro-pyrrolo[3,2-f]-quinolin-7-one] | 5 to 10 |
| CC1Cc2c(ccc3[nH]c(=O)cc(Cl)c23)N1CC(F)(F)F (racemic) [Compound 131, (±)-9-Chloro-2-methyl-3-(2,2,2-trifluoro-ethyl)-1,2,3,6-tetrahydropyrrolo[3,2-f]quinolin-7-one] | > 10 |
| CC1CN(CC(F)(F)F)c2ccc3[nH]c(=O)cc(Cl)c3c21 (racemic) [Compound 132, (±)-9-Chloro-1-methyl-3-(2,2,2-trifluoro-ethyl)-1,2,3,6-tetrahydro-pyrrolo[3,2-f]quinolin-7-one] | < 5 |
| O=c1cc(Cl)c2c3c(ccc2[nH]1)N(CC(F)(F)F)C1CCCCC31 (racemic) [Compound 133, (±)-9-Chloro-1,2-tetramethylene-3-(2,2,2-trifluoro-ethyl)-1,2,3,6-tetrahydro-pyrrolo[3,2-f]quinolin-7-one] | < 5 |
| CCN1CC(C)c2c1ccc1[nH]c(=O)cc(Cl)c21 (racemic) [Compound 134, (±)-9-Chloro-3-ethyl-1-methyl-1,2,3,6-tetrahydro-pyrrolo[3,2-f]quinolin-7-one] | < 5 |
| CCN1c2ccc3[nH]c(=O)cc(Cl)c3c2C(C)C1C (racemic) [Compound 135, (±)-9-Chloro-1,2-dimethyl-3-ethyl-1,2,3,6-tetrahydro-pyrrolo[3,2-f]quinolin-7-one] | 5 to 10 |
| CC1c2c(ccc3[nH]c(=O)cc(Cl)c23)N(C)C1C (racemic) [Compound 136, (±)-9-Chloro-1,2,3-trimethyl-1,2,3,6-tetrahydro-pyrrolo[3,2-f]quinolin-7-one] | > 10 |
| CCCN1c2ccc3[nH]c(=O)cc(Cl)c3c2C(C)C1C (racemic) [Compound 137, (±)-9-Chloro-1,2-dimethyl-3-propyl-1,2,3,6-tetrahydro-pyrrolo[3,2-f]quinolin-7-one] | < 5 |
| CC1c2c(ccc3[nH]c(=O)cc(Cl)c23)N(CC(F)(F)Cl)C1C (racemic) [Compound 138, (±)-9-Chloro-3-(2-chloro-2,2-difluoro-ethyl)-1,2-dimethyl-1,2,3,6-tetrahydro-pyrrolo[3,2-f]-quinolin-7-one] | < 5 |
| CC1c2c(ccc3[nH]c(=O)cc(Cl)c23)N(CCO)C1C (racemic) [Compound 139, (±)-9-Chloro-1,2-dimethyl-3-(2-hydroxyethyl)-1,2,3,6-tetrahydro-pyrrolo[3,2-f]-quinolin-7-one] | > 10 |
| CC1Nc2ccc3[nH]c(=O)cc(Cl)c3c2C1C (racemic) [Compound 140, (±)-9-Chloro-1,2-dimethyl-1,2,3,6-tetrahydro-pyrrolo[3,2-f]quinolin-7-one] | > 10 |
| CC1c2c(ccc3[nH]c(=O)cc(Cl)c23)N(CC(C)(C)C)C1C (racemic) [Compound 141, (±)-9-Chloro-1,2-dimethyl-3-(2,2-dimethylpropyl)-1,2,3,6-tetrahydro-pyrrolo[3,2-f]quinolin-7-one] | 5 to 10 |
| CC1c2c(ccc3[nH]c(=O)cc(Cl)c23)N(CCc2cccs2)C1C (racemic) [Compound 142, (±)-9-Chloro-1,2-dimethyl-3-(2-thien-2-yl-ethyl)-1,2,3,6-tetrahydro-pyrrolo[3,2-f]-quinolin-7-one] | < 5 |
| CC1c2c(ccc3[nH]c(=O)cc(Cl)c23)N(CC(F)F)C1C (racemic) [Compound 143, (±)-9-Chloro-3-(2,2-difluoroethyl)-1,2-dimethyl-1,2,3,6-tetrahydro-pyrrolo[3,2-f]quinolin-7-one] | 5 to 10 |
| CC1c2c(ccc3[nH]c(=O)cc(Cl)c23)N(Cc2ccccc2)C1C (racemic) [Compound 144, (±)-9-Chloro-1,2-dimethyl-3-phenylmethyl-1,2,3,6-tetrahydro-pyrrolo[3,2-f]quinolin-7-one] | 5 to 10 |
| CC1c2c(ccc3[nH]c(=O)cc(Cl)c23)N(CCC(F)(F)F)C1C (racemic) [Compound 145, (±)-9-Chloro-1,2-dimethyl-3-(3,3,3-trifluoropropyl)-1,2,3,6-tetrahydro-pyrrolo[3,2-f]-quinolin-7-one] | < 5 |
| CC1c2c(ccc3[nH]c(=O)cc(Cl)c23)N(CC(F)(F)F)C1c1cccc(Cl)c1 (racemic) [Compound 146, (±)-9-Chloro-2-(3-chlorophenyl)-1-methyl-3-(2,2,2-trifluoroethyl)-1,2,3,6-tetrahydro-pyrrolo[3,2-f]quinolin-7-one] | > 10 |
| CC1c2c(ccc3[nH]c(=O)cc(Cl)c23)N(CC(F)(F)F)C1c1ccc(C(F)(F)F)cc1 (racemic) [Compound 147, (±)-9-Chloro-1-methyl-2-(4-trifluoromethyl-phenyl)-3-(2,2,2-trifluoroethyl)-1,2,3,6-tetrahydro-pyrrolo[3,2-f]quinolin-7-one] | > 10 |
| COc1ccc(C2C(C)c3c(ccc4[nH]c(=O)cc(Cl)c34)N2CC(F)(F)F)cc1 (racemic) [Compound 148, (±)-9-Chloro-2-(4-methoxy-phenyl)-1-methyl-3-(2,2,2-trifluoroethyl)-1,2,3,6-tetrahydro-pyrrolo[3,2-f]quinolin-7-one] | 5 to 10 |
| CC1c2c(ccc3[nH]c(=O)cc(Cl)c23)N(CC(F)(F)F)C1c1ccc(F)cc1 (racemic) [Compound 149, (±)-9-Chloro-2-(4-fluoro-phenyl)-1-methyl-3-(2,2,2-trifluoroethyl)-1,2,3,6-tetrahydro-pyrrolo[3,2-f]quinolin-7-one] | 5 to 10 |
| CC1c2c(ccc3[nH]c(=O)cc(Cl)c23)N(CC(F)(F)F)C1c1ccc(F)cc1F (racemic) [Compound 150, (±)-9-Chloro-2-(2,4-difluorophenyl)-1-methyl-3-(2,2,2-trifluoroethyl)-1,2,3,6-tetrahydropyrrolo-[3,2-f]quinolin-7-one] | > 10 |
